{
  "source": "BindingDB's records for doi:10.1021/acs.jmedchem.5b01828",
  "about": "(University of Macau, 2016)",
  "key": {"[1]": {"biological_target": "T1, [Pyruvate dehydrogenase (acetyl-transferring)] kinase isozyme 1, mitochondrial (Homo sapiens, UniProt Q15118)", "T1 sequence (Q15118 whole entry, the tested form may be a part)": "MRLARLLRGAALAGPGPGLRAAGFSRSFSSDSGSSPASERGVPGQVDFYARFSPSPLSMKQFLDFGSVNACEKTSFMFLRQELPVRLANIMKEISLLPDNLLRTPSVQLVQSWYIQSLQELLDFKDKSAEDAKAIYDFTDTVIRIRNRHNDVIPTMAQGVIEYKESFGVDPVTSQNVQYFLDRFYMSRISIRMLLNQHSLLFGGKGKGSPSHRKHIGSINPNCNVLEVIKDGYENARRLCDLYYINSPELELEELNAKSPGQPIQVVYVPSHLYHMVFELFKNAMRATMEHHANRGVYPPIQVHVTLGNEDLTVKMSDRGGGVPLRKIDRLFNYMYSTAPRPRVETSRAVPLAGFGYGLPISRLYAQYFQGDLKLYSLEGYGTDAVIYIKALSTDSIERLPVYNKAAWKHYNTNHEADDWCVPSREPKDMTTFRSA", "assay": "Competitive binding affinity to recombinant N-terminal 6xHis-SUMO-tagged human PDK1 (29 to 436 residues) expressed in Escherichia coli BL-21 assessed as Kd of ADP at 50 uM by isothermal titration calorimetric method (Rvb = 4.27 uM)"}, "[2]": {"biological_target": "T1, [Pyruvate dehydrogenase (acetyl-transferring)] kinase isozyme 1, mitochondrial", "assay": "Competitive binding affinity to recombinant N-terminal 6xHis-SUMO-tagged human PDK1 (29 to 436 residues) expressed in Escherichia coli BL-21 assessed as Kd of AZD7545 at 50 uM by isothermal titration calorimetric method (Rvb = 290.6 nM)"}},
  "data": [
    {"smiles": "O=C(Nc1ccc(Cl)c(C(F)(F)F)c1)C(Cl)Cl", "values": [
      {"measurement": "Kd", "setting": "[1]", "value": 7.87, "unit": "µM"},
      {"measurement": "Kd", "setting": "[2]", "value": 0.291, "unit": "µM"}
    ]}
  ]
}
